Activity calls are given as the source filed them.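 The calls were made as follows: active = caspase luminescence falls with dose and the half-maximal concentration AC50 from the fitted curve is at or below a set limit; inconclusive = flat fit at 30 to 70% signal loss, or invalid fit; inactive = AC50 above the limit, or signal rises instead.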

For orientation: AC50 means the concentration at which the activity in the assay is half-maximal.

The test system of this test is INS-1E cytokine-induced caspase-3/7, Caspase-Glo luminescence, 48 h. As to the kind of experiment: inhibitors of cytokine-induced caspase-3/7 activity, dose response, orthogonal assay for beta-cell apoptosis protection project, INS-1E rat cells, luminescence (AID 463206).
In the case of `O=S(=O)(NCC1CCCO1)c1ccc(-c2ccc(S(=O)(=O)NCC3CCCO3)cc2)cc1` (stereo not given), the AC50 is > 26 µM (inactive). As for `CCCCCCCCNc1ncnc2ccccc12`, the figure is > 26 µM (inactive); as for `CCCC(C)C(=O)Nc1nc(C)c(-c2csc(Nc3ccc(Cl)cc3)n2)s1` (stereo not given), > 26 µM (inactive).

For `Cc1ccc2nc(C)c(CN3CCN(c4ccc([N+](=O)[O-])cc4Cl)CC3)n2c1`, the AC50 is > 26 µM (inactive).

Take `O=C(CCCc1nc(-c2ccc(Cl)cc2)no1)NC1CCCC1`: the AC50 was > 12 µM (inactive). Take `CCCC(=O)NC(c1ccc(OC)cc1)c1ccc2cccnc2c1O` (stereo not given): the AC50 is > 26 µM (inactive). With `COC(=O)C1=C(c2ccc(OCc3ccccc3)cc2)C[C@@H]2CC[C@H]1N2C(=O)NC1CCN(Cc2ccccc2)CC1` the figure was > 26 µM (inactive); with `Cn1nc(C(C)(C)C)cc1C(=O)NCc1cc(F)cc2c1OCOC2`, > 26 µM (inactive). As to `COC(=O)c1cc(O)cc(OC)c1Oc1cc(C)cc(O)c1C(=O)O`, the AC50 was 3.06 µM.

For `O=C(N/N=C/c1cc(Br)ccc1OC(=O)c1ccc(Br)cc1)c1ccncc1`, the AC50 was > 26 µM (inactive). Consider `Cc1cc(/C=N/n2c(COc3ccccc3C)nc3ccccc3c2=O)c(O)c([N+](=O)[O-])c1`, for which the AC50 was > 26 µM (inactive). Regarding `O=C(N=Nc1c(O)n(Cc2ccccc2)c2ccccc12)c1cc2ccccc2cc1O`, the AC50 is > 26 µM (inactive). Take `NC(=S)N/N=C/c1ccccc1O`: the AC50 was > 26 µM (inactive). Consider `CCCCN(C)CCNC(=O)c1cc2c(-c3ccccc3F)nn(C)c2s1`, for which the AC50 is > 12 µM (inactive).

As for `COc1ccccc1NC(=O)CN(c1ccc(C23CC4CC(CC(C4)C2)C3)cc1)S(C)(=O)=O`, the AC50 is > 26 µM (inactive). As for `Cc1ccc(NC(=O)c2c(C(F)(F)F)nn(C)c2SCc2cccc(C(F)(F)F)c2)cc1C`, the AC50 is > 26 µM (inactive). In the case of `COc1ccc(C(C)NCCC(c2ccc(OC(C)C)cc2)c2ccccc2OC)cc1` (stereo not given), the AC50 was > 26 µM (inactive). Regarding `Nc1ccc2c(c1)C(=O)C(=O)c1ccccc1-2`, the AC50 was > 26 µM (inactive).

`CCC(=O)NC(c1cc(Cl)c2cccnc2c1O)C(C)C` (stereo not given): the AC50 was > 26 µM (inactive). `CN(/N=C/c1cc(Br)cc(Br)c1O)c1cccc(C(F)(F)F)n1`: the AC50 was > 12 µM (inactive). As for `COc1cc(/C=N/NC(=O)c2cccnc2)ccc1OC(=O)c1cc(OC)c(OC)c(OC)c1`, the figure is > 26 µM (inactive); as for `COc1cnc(-c2ccccn2)nc1Oc1ccc(C(C)(C)C)cc1`, > 26 µM (inactive); as for `Cc1ccc(C)c(NC(=O)c2ccccc2NS(=O)(=O)c2cc([N+](=O)[O-])ccc2C)c1`, > 26 µM (inactive). Turning to `O=C(/C=C/c1ccc(-c2ccccc2)cc1)NCc1cccnc1`, the AC50 was > 26 µM (inactive).

For the compound `Cc1ccccc1Nc1c(-c2ccccn2)nc2c(C)cccn12`, the AC50 is > 26 µM (inactive). With `O=C(Nc1ccc(Cl)c(Cl)c1)Nc1nnc(CC2=CCCCC2)s1` the figure was > 26 µM (inactive); with `CC1(C)Cc2c(c(N3CCOCC3)nc3sc4c(NN)ncnc4c23)CS1`, > 26 µM (inactive); with `CCCSc1nsc(NC(=O)Nc2ccc(F)cc2F)n1`, > 26 µM (inactive).

In the case of `O=C(Oc1c(Cl)cc(Cl)c2cccnc12)c1cccs1`, the AC50 was > 12 µM (inactive). Regarding `COc1ccccc1C(NC(C)=O)c1cc(Cl)c2cccnc2c1O` (stereo not given), the AC50 is > 26 µM (inactive). For `Cc1cc(/C=C2/SC(=S)N(c3ccc([N+](=O)[O-])cc3)C2=O)c(C)n1-c1cccnc1`, the AC50 is > 26 µM (inactive).

On to `O=[N+]([O-])c1cc(CN2CCN(c3ccccc3)CC2)c(O)c2ncccc12`, for which the AC50 was > 26 µM (inactive). `CCN1CCN(c2ccc(S(=O)(=O)N3CCCCC3)cc2NC(=O)c2ccc([N+](=O)[O-])s2)CC1`: the AC50 was > 26 µM (inactive).

For `COc1ccc(CCNc2cc(N3CCN(C(=O)c4ccccc4OC)CC3)ccc2[N+](=O)[O-])cc1OC`, the AC50 was > 26 µM (inactive). As for `Cc1ccc(Nc2cc(C)nn2-c2nc(C)cc(=O)[nH]2)cc1`, the AC50 was > 26 µM (inactive). `CCN(CC)c1ccc(/C=N/N(c2ccccc2)c2ccccc2)c(O)c1`: the AC50 was > 26 µM (inactive).

As for `COc1ccc(C2/C=C\CN(C(=O)Nc3ccc(C(F)(F)F)cc3)CC(=O)N2Cc2ccc(F)cc2)cc1` (stereo not given), the AC50 was > 26 µM (inactive). `CCC(O)C1CCN(C(=O)c2cc(COc3ccc4ncccc4c3)on2)CC1` (stereo not given): the AC50 is > 26 µM (inactive). As for `CCOC(=O)c1c(CSc2nc(C)cc(C)c2C#N)n(C)c2cc(Br)c(OC(C)=O)cc12`, the AC50 was > 26 µM (inactive). Turning to `COc1cc(/C=C(/C(=O)c2cccs2)c2nc3ccccc3[nH]2)ccc1O`, the AC50 was > 26 µM (inactive). Turning to `O=[N+]([O-])c1cnc(Sc2ccncn2)s1`, the AC50 is > 26 µM (inactive). Consider `Cc1cccc(C)c1NC(=O)CNC(=O)c1c(C)nn(C)c1Cl`, for which the AC50 was > 26 µM (inactive).

With `COc1ccc(-c2csc(NC(=O)C3CCN(c4ncnc5sc(C)c(C)c45)CC3)n2)cc1OC`, the AC50 was > 26 µM (inactive). In the case of `COc1ccc(N(C(=O)CCl)C(C(=O)NCCc2ccccc2)c2cccs2)cc1Cl` (stereo not given), the AC50 is > 26 µM (inactive).

On to `Cc1ccc2nc(NC(=O)c3ccccn3)sc2c1`, for which the AC50 was > 26 µM (inactive). With `C/C(N)=C(/C#N)C(=O)COC(=O)c1cc(-c2ccc(C)cc2)nc2ccccc12` the figure was > 26 µM (inactive); with `Cc1ccc(/C=N/Nc2ccnc3cc(Cl)ccc23)c(C)c1`, > 12 µM (inactive); with `COc1ccccc1NCC(=O)N/N=C/c1c(O)ccc2ccccc12`, > 26 µM (inactive). Turning to `CC1CCN(C(=O)CCNS(=O)(=O)c2ccc(Br)cc2)CC1`, the AC50 is > 26 µM (inactive).

For `Cc1cc(C)cc(OCC(O)CN2CCC(CN3C(=O)c4cccc5cccc(c45)C3=O)CC2)c1` (stereo not given), the AC50 was > 26 µM (inactive). For `Cc1ccc(C(=O)O/N=C/c2c(N3CCOCC3)n(C)c3ccccc23)cc1`, the AC50 is > 26 µM (inactive). Regarding `C/C(=N\Nc1nc(C)cc(-c2ccccc2)n1)c1ccc(F)cc1`, the AC50 is > 26 µM (inactive).

For `Cc1ccc(C2CC(c3cccc(C)c3)n3nc(N)nc3N2)cc1` (stereo not given), the AC50 was > 26 µM (inactive).

Consider `CC(=O)NC(c1cc(Cl)c2cccnc2c1O)C1CC1` (stereo not given), for which the AC50 was > 26 µM (inactive). With `Cc1ccc2ccc3ccc(C)nc3c2n1` the figure was > 26 µM (inactive). As for `Cc1ccc([N+](=O)[O-])c(OCCN2CCCCCC2)c1`, the figure is > 26 µM (inactive); as for `COc1cccc2sc(Nc3nc(-c4ccccn4)cs3)nc12`, > 26 µM (inactive); as for `O=S(=O)(c1ccc(Cl)cc1)N1CCN(Cc2ccc(O)c3ncccc23)CC1`, > 26 µM (inactive). Consider `CCCCCCCCCCOC(=O)Cn1c(COc2ccccc2)[n+](C)c2ccccc21`, for which the AC50 was > 26 µM (inactive). As to `CCOc1cc(/C=N/Nc2cc(C)nc(-n3nc(C)cc3C)n2)ccc1O`, the AC50 was > 26 µM (inactive). As for `Oc1ccc(CCNc2ncnc3ccc(Cl)cc23)cc1`, the AC50 is > 26 µM (inactive).

As to `CN(C)S(=O)(=O)c1cccc(NC(=S)N/N=C/c2cc(Br)ccc2O)c1`, the AC50 was > 26 µM (inactive). `C=C[C@H](Cc1ccccc1)N(Cc1ccccc1)S(=O)(=O)N(Cc1ccccc1)[C@H](C=C)Cc1ccccc1`: the AC50 was > 26 µM (inactive). As for `CC1CCN(Cc2c(C(=O)N/N=C/c3cc(Br)ccc3O)nnn2-c2nonc2N)CC1`, the figure is > 26 µM (inactive); as for `O=C(CCC(=O)Nc1ccc(Cl)cc1Cl)N/N=C/c1ccc([N+](=O)[O-])o1`, > 26 µM (inactive). In the case of `COc1ccccc1-n1c(=O)oc2ccc(Cl)cc2c1=O`, the AC50 is > 26 µM (inactive). With `CC(=O)c1cccc(NS(=O)(=O)c2ccc(N/C=C/C(=O)c3ccc(F)cc3)cc2)c1`, the AC50 was > 26 µM (inactive).

For `Cc1cc(C(C)(C)C)cc(C)c1Cn1c2[n+](c3ccc(C(F)(F)F)cc31)CCCCC2`, the AC50 is > 26 µM (inactive). Regarding `Cc1ccccc1Oc1cc(-n2ncc(Cl)c(Cl)c2=O)ncn1`, the AC50 is > 26 µM (inactive). Consider `Oc1ccc(CNc2ccccc2)c2cccnc12`, for which the AC50 was > 26 µM (inactive). `O=C(Nc1cc(-c2ccccc2)nn1C1CCCCC1)c1ccc(Cl)cc1`: the AC50 was > 26 µM (inactive). On to `COc1cccc(COc2cc3ccccc3nc2C)c1`, for which the AC50 was > 26 µM (inactive). As for `O=C(N/N=C\c1cc(Cl)ccc1O)c1ccc(S(=O)(=O)N2CCCCC2)cc1`, the figure is > 26 µM (inactive); as for `Cc1ccccc1OCC(O)CNC1CCC(NCC(O)COc2ccccc2C)CC1` (stereo not given), > 26 µM (inactive).

With `O=C(Oc1c(CN2CCOCC2)cc(Cl)c2cccnc12)c1ccccc1`, the AC50 was > 26 µM (inactive).

As for `Cc1ccccc1NC1=C/C(=N\S(=O)(=O)c2cccs2)c2ccccc2C1=O`, the AC50 is > 26 µM (inactive). `Cc1ccc(C(=O)Nc2nc(-c3ccccn3)cs2)s1`: the AC50 was > 26 µM (inactive). Take `COc1ccc(NS(=O)(=O)c2cccc(NC(=O)c3ccc(S(=O)(=O)N4CCCCCC4)cc3)c2)cc1`: the AC50 is > 26 µM (inactive). Take `c1nc(NCc2ccc3c(c2)OCO3)c2cc(-c3ccc4c(c3)OCCO4)ccc2n1`: the AC50 was > 26 µM (inactive). With `CCC(C)(C)c1ccc(OCCCC[n+]2ccccc2)c(C(C)(C)CC)c1` the figure was > 26 µM (inactive); with `CCOc1ccc(-n2c(=O)[nH]cc(C(=O)Nc3ccc(OC)c(OC)c3)c2=O)cc1`, > 26 µM (inactive).

For the compound `COc1ccc([C@H]2CC(=O)C=C(c3ccnc4ccc(Cl)cc34)C2)cc1`, the AC50 was > 26 µM (inactive). With `CS(=O)(=O)c1ncc(Cl)c(C(=O)Nc2ccc(OC(F)F)cc2)n1` the figure was > 26 µM (inactive); with `CCCCCCCCCn1c2c(c(=N)c3c1CCC3)CCC2`, > 12 µM (inactive). Consider `COc1ccccc1NC(=O)c1cc2cc(Br)ccc2cc1O`, for which the AC50 was > 26 µM (inactive).

The values above are taken from PubChem BioAssay AID463206 (Broad Institute, 2010).
